“Also recorded” adds a separate entry of the source. Counter-ions that a name gives are not always drawn. Like-named read-outs stand apart in the source and are kept apart here.
Experiments:
[1] = tested on: various cancer cell lines; details: read-out: IC50, apoptosis induction; cited from earlier work
normal human fibroblasts = details: read-out: IC50, apoptosis induction; cited from earlier work
anandamide uptake = details: cited from earlier work
anandamide levels = details: rat cerebellum; cited from earlier work
variety of cell types = details: cited from earlier work
[2] = cited from earlier work
MCT1 = MCT1 (Homo sapiens, UniProt P53985); details: cited from earlier work
MCT2 = MCT2 (Homo sapiens, UniProt O60669); details: cited from earlier work
[3] = target: sodium/D-glucose cotransporter; details: cited from earlier work
neutrophil chemotaxis = details: in vitro; read-out: IC50, neutrophil chemotaxis in response to IL-8; cited from earlier work
neutrophil margination = details: in vivo; read-out: IC50, neutrophil margination induced by IL-8; cited from earlier work
[4] = target: proteinase-activated receptor 1 (PAR1) (Homo sapiens, UniProt P25116); details: read-out: IC50, blocking binding of haTRAP; cited from earlier work
platelet aggregation = details: cited from earlier work
PAR2 = PAR2 (Homo sapiens, UniProt P55085); details: cited from earlier work
PAR4 = PAR4 (Homo sapiens, UniProt Q96RI0); details: cited from earlier work
Glut1 = Glut1 (Homo sapiens, UniProt P11166); details: cited from earlier work
[5] = tested on: KP4, Panc1, Miapaca2 and 8988T (mesenchymal) vs Panc0403, Panc0504 and 8988S (epithelial) cancer cell lines; experiment: Cell growth by cell-titer-glo assay, mesenchymal vs epithelial cancer cell lines; assay type: cell-based; details: FIG. 8
Description: Validation studies were performed for two mesenchymal selective dependencies.

carcinoma cell lines [6] = experiment: Correlation of EMT signatures with PRISM compound AUCs; details: PRISM drug testing cohort
Source text: (§1) FIG. 2A-2B—Investigation of the EMT signature and drug sensitivity data. FIG. 2A illustrates the top and bottom correlations between the PRISM compound AUCs (measure of drug sensitivity with a higher value indicating resistance) across three independent EMT down (FIG. 2A) and up (FIG. 2A continued) signatures (Byers, Groger, and Taube). FIG. 2B illustrates the top and bottom correlations between the CTD^2 drug testing cohort compound AUCs with the down (FIG. 2B) and up (FIG. 2B continued) EMT signatures (Byers, Groger, and Taube).
(§2) Applicants analyzed correlations between the EMT signatures and drug sensitivities (FIG. 2).
(§3) Data Curation. All analyses were performed using publicly available data downloaded from the Dependency Map web portal, corresponding to the 22Q2 release. Drug testing data was from the 19Q4 release of PRISM and the most recent release (2015) of CTD ([…]). EMT gene sets were taken from the supplementals of the Byers (2013), Groger (2012), and Taube (2010) EMT related publications. Gene sets were broken down into up (mesenchymal) and down (epithelial) sub-gene sets. If up or down is not labeled in a figure, the composite gene set (union of the up and down lists) was used for scoring. […]
(§4) Computational Methods. […] EMT scores were generated using the GSVA package (v1.38.2) and Pearson correlations were calculated using the base cor function. […]

[7] = tested on: tumor cells having a mesenchymal state; experiment: EMT signature and drug sensitivity data (PRISM and CTD^2, FIG. 2); details: mesenchymal vs epithelial state
Description: Data Curation. All analyses were performed using publicly available data downloaded from the Dependency Map web portal, corresponding to the 22Q2 release. Drug testing data was from the 19Q4 release of PRISM and the most recent release (2015) of CTD (Gröger, C. J., et al., 2012). EMT gene sets were taken from the supplementals of the Byers (2013), Groger (2012), and Taube (2010) EMT related publications. Gene sets were broken down into up (mesenchymal) and down (epithelial) sub-gene sets. If up or down is not labeled in a figure, the composite gene set (union of the up and down lists) was used for scoring. Only carcinoma coded cell lines were used in analyses. These carcinoma lines were then subset further, when indicated, based on KRAS mutation or pancreas lineage.
Computational Methods. Analyses were performed using the statistical programming language R (v4.0.3, macOS 12.5.1, platform: x86_64-apple-darwin17.0 (64-bit)). EMT scores were generated using the GSVA package (v1.38.2) and Pearson correlations were calculated using the base cor function. All plots were generated using ggplot2 (v3.3.6). Data manipulation was performed using the dplyr (v1.0.8) and reshape2 (v.1.4.4) packages.

Survivin promoter = details: HeLa-SURP-luc and CHO-SV40-luc cells; read-out: IC50, inhibition of Survivin promoter activity; cited from earlier work
SV40 promoter = details: cited from earlier work
carcinoma cell lines [8] = experiment: Correlation of EMT signatures with CTD^2 compound AUCs; details: CTD^2 drug testing cohort
Source text: as §1, §2, §3, §4

Chain of PAR2 (P55085 26-397): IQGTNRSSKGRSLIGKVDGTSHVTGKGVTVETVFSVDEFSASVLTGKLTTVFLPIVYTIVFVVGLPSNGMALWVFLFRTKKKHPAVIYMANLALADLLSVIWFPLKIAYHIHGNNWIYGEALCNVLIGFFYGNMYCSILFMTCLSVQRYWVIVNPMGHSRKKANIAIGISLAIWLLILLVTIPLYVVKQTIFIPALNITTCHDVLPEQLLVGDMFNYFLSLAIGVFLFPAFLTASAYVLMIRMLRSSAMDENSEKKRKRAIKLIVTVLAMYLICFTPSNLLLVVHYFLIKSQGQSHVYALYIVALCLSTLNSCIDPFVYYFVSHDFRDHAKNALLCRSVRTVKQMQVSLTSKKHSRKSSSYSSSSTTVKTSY
Chain of MCT2 (O60669 whole entry, species assumed): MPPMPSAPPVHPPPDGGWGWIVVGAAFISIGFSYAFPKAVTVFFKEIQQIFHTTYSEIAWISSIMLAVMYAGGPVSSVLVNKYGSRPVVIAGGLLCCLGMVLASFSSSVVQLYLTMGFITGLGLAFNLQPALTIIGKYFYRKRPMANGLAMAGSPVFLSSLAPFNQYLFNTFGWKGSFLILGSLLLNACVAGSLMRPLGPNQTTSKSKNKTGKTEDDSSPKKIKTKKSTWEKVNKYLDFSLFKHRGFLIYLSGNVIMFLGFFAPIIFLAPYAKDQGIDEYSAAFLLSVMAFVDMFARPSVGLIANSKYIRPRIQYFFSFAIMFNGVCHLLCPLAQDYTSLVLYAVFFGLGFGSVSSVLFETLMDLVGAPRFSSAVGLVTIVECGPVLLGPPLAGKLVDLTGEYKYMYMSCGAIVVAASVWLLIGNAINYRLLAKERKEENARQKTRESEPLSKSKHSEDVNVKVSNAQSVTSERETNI
Chain of proteinase-activated receptor 1 (PAR1) (P25116 22-425, species assumed): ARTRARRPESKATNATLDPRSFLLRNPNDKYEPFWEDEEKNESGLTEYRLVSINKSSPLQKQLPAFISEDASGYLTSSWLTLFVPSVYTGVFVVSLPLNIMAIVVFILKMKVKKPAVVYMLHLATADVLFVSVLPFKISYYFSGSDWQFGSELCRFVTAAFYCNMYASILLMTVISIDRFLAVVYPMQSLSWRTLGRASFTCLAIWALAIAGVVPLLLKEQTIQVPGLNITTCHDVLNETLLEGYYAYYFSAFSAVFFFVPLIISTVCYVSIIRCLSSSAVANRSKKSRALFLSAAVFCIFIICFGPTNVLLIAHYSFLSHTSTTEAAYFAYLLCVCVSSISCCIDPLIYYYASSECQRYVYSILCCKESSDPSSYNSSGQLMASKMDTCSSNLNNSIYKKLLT
Chain of Glut1 (P11166 whole entry, species assumed): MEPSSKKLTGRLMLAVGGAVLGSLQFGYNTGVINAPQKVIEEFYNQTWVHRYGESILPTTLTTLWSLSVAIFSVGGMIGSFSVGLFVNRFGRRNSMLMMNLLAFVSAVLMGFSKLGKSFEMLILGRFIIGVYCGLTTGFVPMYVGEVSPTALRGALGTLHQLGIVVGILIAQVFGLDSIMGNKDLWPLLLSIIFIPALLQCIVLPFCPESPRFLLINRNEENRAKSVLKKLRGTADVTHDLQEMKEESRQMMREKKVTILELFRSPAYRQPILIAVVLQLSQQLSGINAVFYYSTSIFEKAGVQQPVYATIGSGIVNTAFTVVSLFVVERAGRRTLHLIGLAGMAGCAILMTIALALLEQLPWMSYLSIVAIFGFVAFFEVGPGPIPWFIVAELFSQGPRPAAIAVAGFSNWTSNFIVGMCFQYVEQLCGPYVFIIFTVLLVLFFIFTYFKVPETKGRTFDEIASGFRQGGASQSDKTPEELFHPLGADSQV
Chain of PAR4 (Q96RI0 18-385): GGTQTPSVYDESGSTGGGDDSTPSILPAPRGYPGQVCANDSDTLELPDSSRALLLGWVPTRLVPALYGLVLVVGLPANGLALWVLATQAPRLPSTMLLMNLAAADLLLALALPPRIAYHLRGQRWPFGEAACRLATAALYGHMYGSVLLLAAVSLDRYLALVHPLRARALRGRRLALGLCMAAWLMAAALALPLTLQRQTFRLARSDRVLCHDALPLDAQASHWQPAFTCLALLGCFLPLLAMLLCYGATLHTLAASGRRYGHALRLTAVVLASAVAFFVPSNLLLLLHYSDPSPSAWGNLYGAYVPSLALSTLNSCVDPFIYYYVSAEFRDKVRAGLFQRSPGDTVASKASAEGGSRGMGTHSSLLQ
Chain of MCT1 (P53985 whole entry): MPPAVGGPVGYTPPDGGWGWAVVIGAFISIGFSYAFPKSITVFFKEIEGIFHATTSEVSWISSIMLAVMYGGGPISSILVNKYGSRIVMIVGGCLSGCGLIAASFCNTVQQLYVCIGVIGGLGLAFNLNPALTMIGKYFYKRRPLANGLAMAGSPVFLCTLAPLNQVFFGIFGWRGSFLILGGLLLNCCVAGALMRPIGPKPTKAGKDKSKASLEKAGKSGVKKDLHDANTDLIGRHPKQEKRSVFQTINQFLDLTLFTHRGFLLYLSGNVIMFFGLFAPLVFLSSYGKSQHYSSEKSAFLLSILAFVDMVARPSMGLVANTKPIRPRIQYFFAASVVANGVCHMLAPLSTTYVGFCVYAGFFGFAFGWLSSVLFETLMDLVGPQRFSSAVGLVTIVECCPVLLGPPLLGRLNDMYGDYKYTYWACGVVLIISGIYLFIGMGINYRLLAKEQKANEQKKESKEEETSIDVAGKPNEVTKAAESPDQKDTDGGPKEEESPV

In the case of `OCCNCCCOc1cccc(Cl)c1Cl` [2,3-DCPE, 2-[3-(2,3-dichlorophenoxy)propylamino]ethanol;hydrochloride], the IC50 [1] is listed as 0.89 to 2.69 µM and the IC50 (normal human fibroblasts) is listed as 12.6 µM.
In the case of `CN(C)C(=O)n1nnnc1Cc1ccc(-c2ccccc2)cc1` [LY2183240, N,N-dimethyl-5-[(4-biphenyl)methyl]tetrazole-1-carboxamide], the IC50 (anandamide uptake; read-out: IC50, anandamide uptake) is given as 270 µM, the Ki (anandamide uptake; read-out: Ki, anandamide uptake) is given as 540 µM and the “ED50, increase of anandamide levels” value (anandamide levels) is given as 1.37 mg/kg.
For `CC[C@H]1/C=C/C=C/C[C@@H](C)[C@H](O)[C@@](C)(O)C(=O)[C@@H](C)[C@H](O)[C@@H](C)C(=O)[C@@H](C)[C@H](O)[C@@H](C)/C=C/C(=O)O[C@@H]2[C@H](C)[C@H](CC1)O[C@]1(CC[C@H](C)[C@H](C[C@@H](C)O)O1)[C@H]2C` [Oligomycin A, (1R,4E,5′S,6S,6′S,7R,8S,10R,11R,12S,14R,15S,16R,18E,20E,22R,25S,27R,28S,29R)-22-ethyl-7,11,14,15-tetrahydroxy-6′-[(2R)-2-hydroxypropyl]-5′,6,8,10,12,14,16,28,29-nonamethyl-3′,4′,5′,6′-tetrahydro-3H,9H,13H-spiro[2,26-dioxabicyclo[23.3.1]nonacosa-4,18,20-triene-27,2′-pyran]-3,9,13-trione], the GI50 (variety of cell types) is listed as 0.27 µM and the “solubility in water and other biocompatible solvents” value [2] is listed as “poor solubility”.
In the case of `O=C(CCc1ccc(O)cc1)c1c(O)cc(O)cc1O` [Phloretin, 3-(4-hydroxyphenyl)-1-(2,4,6-trihydroxyphenyl)propan-1-one], the IC50 (MCT1) is given as 28 µM, the IC50 (MCT2) is given as 14 µM and the Ki [3] is given as 86 µM.
In the case of `O=C(Nc1ccc([N+](=O)[O-])cc1O)Nc1ccccc1Br` [SB 225002, 1-(2-bromophenyl)-3-(2-hydroxy-4-nitrophenyl)urea], the IC50 (neutrophil chemotaxis) is given as 0.02 µM and the IC50 (neutrophil margination) is given as 0.03 µM.
In the case of `CC(C)c1ccc(Cn2ccc3c4c(N)nc(NC5CC5)nc4ccc32)cc1` [SCH 79797, 3-N-cyclopropyl-7-[(4-propan-2-ylphenyl)methyl]pyrrolo[3,2-f]quinazoline-1,3-diamine], the IC50 [4] is listed as 0.07 µM, the IC50 (platelet aggregation; inducer haTRAP, read-out: IC50, platelet aggregation induced by haTRAP) is listed as 0.3 µM and the IC50 (platelet aggregation; inducer α-thrombin, read-out: IC50, platelet aggregation induced by α-thrombin) is listed as 3 µM. For the same molecule, the “activity against PAR2” value (PAR2) was “no activity” and the “activity against PAR4” value (PAR4) was “no activity”.
In the case of `CC(C)(C)c1ccc(S(=O)(=O)NCc2ccc(C(=O)Nc3cccnc3)cc2)cc1` [STF-31, 4-[[[[4-(1,1-dimethylethyl)phenyl]sulfonyl]amino]methyl]-N-3-pyridinyl-benzamide], the IC50 (Glut1) is given as about 1 µM.
With `COCCn1c2c([n+](Cc3cnccn3)c1C)C(=O)c1ccccc1C2=O` [YM-155, 1-(2-methoxyethyl)-2-methyl-3-(pyrazin-2-ylmethyl)benzo[f]benzimidazol-3-ium-4,9-dione;bromide] the “selectivity of growth inhibition, mesenchymal vs epithelial cancer cells” value [5] was “selective for inhibiting growth of mesenchymal cancer cells; also recorded: selectively targeted cancer cells that have undergone an epithelial-to-mesenchymal transition”, the “correlation of compound AUC with composite EMT signatures” value (carcinoma cell lines [6]) was “top positively correlated compound” and the “selective efficacy / lethality in the mesenchymal cell state” value [7] was “potent selectivity against the mesenchymal cell state”. The IC50 (Survivin promoter) was 0.00054 µM and the “inhibition of SV40 promoter activity” value (SV40 promoter) was “does not significantly inhibit”.
In the case of `O=C(Nc1ccc([N+](=O)[O-])cc1Cl)c1cc(Cl)ccc1O` [niclosamide, 5-chloro-N-(2-chloro-4-nitrophenyl)-2-hydroxybenzamide], the “correlation of compound AUC with composite EMT signatures” value (carcinoma cell lines [8]) is reported as “top positively correlated compound” and the “selective efficacy / lethality in the mesenchymal cell state” value [7] is reported as “selective efficacy in mesenchymal cancer cells”.

Source: patent US20260125683A1, “TREATMENT OF CANCERS HAVING A DRUG-RESISTANT MESENCHYMAL CELL STATE” (DANA-FARBER CANCER INSTITUTE, INC., priority 2023, published 2026)
